The source of these data is patent US9242975B2, “Heterocyclic-substituted pyridyl compounds useful as kinase inhibitors” (Bristol-Myers Squibb Company, priority 2012, dated 2016).

Molecules are shown by their SMILES.

The target of the test is IRAK4 (Homo sapiens (Human), UniProt Q9NWZ3). The test is described as follows: IRAK4 Inhibition Assay. The note with it: ATP 500 μM; FL-IPTSPITTTYFFFKKK peptide 1.5 μM; IRAK4 0.6 nM; 60 min at room temperature; Caliper LabChip 3000. It is filed as biochemical. On the procedure: The assays were performed in U-bottom 384-well plates. The final assay volume was 30 μL prepared from 15 μL additions of enzyme and substrates (fluoresceinated peptide and ATP) and test compounds in assay buffer (20 mM HEPES pH 7.2, 10 mM MgCl2, 0.015% Brij35 and 4 mM DTT). The reaction was initiated by the combination of IRAK4 with substrates and test compounds. The reaction was incubated at room temperature for 60 min. and terminated by adding 45 μL of 35 mM EDTA to each sample. The reaction mixture was analyzed on the Caliper LabChip 3000 (Caliper, Hopkinton, Mass.) by electrophoretic separation of the fluorescent substrate and phosphorylated product. Inhibition data were calculated by comparison to no enzyme control reactions for 100% inhibition and vehicle-only reactions for 0% inhibition. The final concentrations of reagents in the assays are ATP, 500 μM; FL-IPTSPITTTYFFFKKK peptide 1.5 μM; IRAK4, 0.6 nM; and DMSO, 1.6%.
Sequence of IRAK4 (Q9NWZ3 whole entry): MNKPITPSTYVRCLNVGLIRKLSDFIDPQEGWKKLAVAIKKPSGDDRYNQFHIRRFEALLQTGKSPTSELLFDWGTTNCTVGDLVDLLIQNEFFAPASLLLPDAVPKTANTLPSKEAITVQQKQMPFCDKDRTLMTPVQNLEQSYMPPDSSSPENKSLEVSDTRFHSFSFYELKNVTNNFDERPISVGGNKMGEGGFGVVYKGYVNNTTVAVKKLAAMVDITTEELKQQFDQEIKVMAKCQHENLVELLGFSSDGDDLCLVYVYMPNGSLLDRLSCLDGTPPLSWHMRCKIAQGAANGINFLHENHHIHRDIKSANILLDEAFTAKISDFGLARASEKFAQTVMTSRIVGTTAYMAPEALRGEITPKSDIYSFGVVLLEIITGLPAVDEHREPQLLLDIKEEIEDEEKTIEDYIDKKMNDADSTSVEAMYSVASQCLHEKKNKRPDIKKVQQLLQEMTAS

For the molecule `CNC(=O)c1nc(-c2cnc(Nc3ccc4ncsc4c3)cc2NC(C)C)sc1C` [Example 27, 2-(6-(benzo[d]thiazol-6-ylamino)-4-(isopropylamino)pyridin-3-yl)-N,5-dimethylthiazole-4-carboxamide], the IC50 was 1.8 nM.

A word on the IC50: it is the concentration needed to halve the response being measured.
